# From US20250099622A1, “COMPOSITIONS AND METHODS FOR EXPRESSING THERAPEUTICS” (priority 2022, published 2025)
# System: HEK293 cells
# Assay: CNP-Fc ELISA of supernatant of AAV-transduced HEK293 cells
# Format: cell-based, Human
# Description: C-type natriuretic peptide (CNP) has two isoforms, CNP-22 and CNP-53. Example 2 illustrates that CNP-36 fused with Fe increased the half-life of the CNP and also facilitated in purification and ELISA detection when compared to native (unfused) CNP. Transduction and CNP-Fc expression experiments were performed with three AAV vectors (AMI061, AMI087 and AMI0488). FIG. 1A is the pictorial depiction of the three vectors. FIGS. 1B-F illustrate additional vectors that can encode the CNP or the CNP fusion protein. Enzyme-linked immunoassay (ELISA) was developed for quantifying CNP-Fc fusion proteins in cell culture supernatants. The ELISA assay was used to quantify CNP-Fc expressed in HEK293 cells, human chondrocytes (HCH) cells, and human skeletal muscle cells (hSkMC) upon transduction with one of the three AAV constructs described herein.
# Buffer and substrate. Coating buffer: 3.7 g sodium bicarbonate, 0.64 g sodium carbonate in 1 L of Milli Q water, pH 9.6. Stored at RT; Blocking buffer: Commercial Casein blocking buffer in PBS+ added 0.1% Tween20. Stored at 4° C.; Standard diluent: same as blocking buffer; Wash buffer: 1×PBS with 0.1% tween 20 (30 days expiry from date of manufacture); Coating Antibody (Ab): Human CNP Antibody (monoclonal), coating concentration was 2 μg/mL; Detection Ab: Goat pAb anti-human Fc. Diluted up to 1:20,000 final dilution in well. Stored at 4° C.; HRP: Streptavidin-HRP stock of 1 mg/mL, diluted up to 1:10,000. Stored at 4° C.; Substrate: TMB. Stored at 4° C.; and Stop solution: 2 N HCl. Stored at ambient temperature.
# • 1. Coat 96-well plate with 2 μg/mL anti-CNP antibody final concentration per well in the coating buffer with a 50 μL volume and cover the plate with sealing cover. Put the plate at 4° C. overnight. • 2. Next day, remove the plate, wash thrice with wash buffer and tap the plate on the paper towel to remove excess solution. • 3. Add 300 μL of blocking buffer to each well using multichannel pipette. […] Add 50 μL stop solution and read plate at 450 nm with 600 as reference within 15 min. […]
substance,measurement,setting,value
"AMI088: purified fusion protein Fc1-(G4S)4-CNP36 (IgG1 Fc), SEQ ID NO: 133",Concentration,"CNP-Fc in HEK293 supernatant 5 days after transduction with 100,000 MOI of AAV2 N54 vector",75 µg/mL
same,CNP-Fc expression compared to other CNP constructs,"HEK293 supernatant, 100,000 MOI, 5 days",highest expression
